These results are taken from the NIST ThermoML archive (doi:10.1021/je200039y).

± gives the expanded uncertainty stated by the source.

Data set [1] can be described thus: refractive index (Na D-line) (dimensionless). As to conditions: 298 K; 101.33 kPa; Liquid; Standard Abbe refractometry.
The conditions of data set [2]: Liquid.
Where [3] appears, read: 350.3 K, Closed cell (Static) method.
[4] abbreviates: 350.43 K, Closed cell (Static) method.
The mark [5] stands for this setting: 343.15 K, Ebulliometric method (Recirculating still).

In the case of `Cc1ccccc1C` [1,2-dimethylbenzene], the refractive index (in general, a measure of how strongly the sample bends light) in data set [1] is 1.5026 ± 0.0007. With `CSSC` [2,3-dithiabutane], the vapor or sublimation pressure (commonly the equilibrium pressure above the liquid or solid) in data set [2] (343.15 K, Closed cell (Static) method) is 27.8 ± 0.4 kPa; in data set [2] (setting [3]), 36.1 ± 0.8 kPa; in data set [2] (350.38 K, Closed cell (Static) method), 36 ± 0.8 kPa; in data set [2] (setting [4]) it was 35.8 ± 0.8 kPa; in data set [2] (350.55 K, Closed cell (Static) method), 36.1 ± 0.8 kPa. Further, the refractive index in data set [1] is recorded as 1.5226 ± 0.0007. For the compound `CCOC(C)(C)C` [2-ethoxy-2-methylpropane], the “vapor or sublimation pressure” value in data set [2] (setting [5]) came out at 92.9 ± 0.7 kPa. For the same compound, the refractive index in data set [1] came out at 1.373 ± 0.0007. For the compound `CC(C)C` [2-methylpropane], the “vapor or sublimation pressure” value in data set [2] (350.54 K, Closed cell (Static) method) was 1269.5 ± 5.5 kPa.

Take `C=C(C)C` [2-methylpropene]: the “vapor or sublimation pressure” value in data set [2] (setting [4]) came out at 1154.3 ± 5 kPa. On to `C/C=C/C` [(E)-2-butene], for which the “vapor or sublimation pressure” value in data set [2] (setting [3]) is given as 929.2 ± 4 kPa.

On to `CCCC` [butane], for which the “vapor or sublimation pressure” value in data set [2] (350.36 K, Closed cell (Static) method) is 951.7 ± 4.1 kPa. Regarding `CCO` [ethanol], in data set [2] (setting [5]), the “vapor or sublimation pressure” value came out at 72.5 ± 0.6 kPa. The refractive index in data set [1] was 1.3593 ± 0.0007.
